Source: ChEMBL document CHEMBL1129472, “The structure-activity relationship between peroxisome proliferator-activated receptor gamma agonism and the antihyperglycemic activity of thiazolidinediones” (J Med Chem, 1996)

Assays:
Mus musculus = species on record: Mus musculus; test: Minimum effective dose required for significant reduction in blood glucose in ob/ob mice; assay type: functional
[1] = biological target: T1, Peroxisome proliferator-activated receptor gamma (Mus musculus, UniProt P37238)
T1 sequence (P37238 whole entry): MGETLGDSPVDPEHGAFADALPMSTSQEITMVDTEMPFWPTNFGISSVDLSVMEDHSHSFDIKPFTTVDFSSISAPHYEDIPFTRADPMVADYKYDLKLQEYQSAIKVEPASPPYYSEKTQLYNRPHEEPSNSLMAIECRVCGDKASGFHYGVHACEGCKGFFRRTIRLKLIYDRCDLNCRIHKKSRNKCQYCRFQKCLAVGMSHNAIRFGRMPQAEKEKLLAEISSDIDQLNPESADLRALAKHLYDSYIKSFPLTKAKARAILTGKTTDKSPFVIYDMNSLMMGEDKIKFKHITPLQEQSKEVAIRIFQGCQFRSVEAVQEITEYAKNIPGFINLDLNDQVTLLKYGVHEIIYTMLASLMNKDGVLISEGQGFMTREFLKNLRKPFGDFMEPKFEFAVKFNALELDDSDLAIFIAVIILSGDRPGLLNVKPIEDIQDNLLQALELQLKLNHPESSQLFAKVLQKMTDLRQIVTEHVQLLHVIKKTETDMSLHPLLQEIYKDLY
Description: In vitro transcriptional activation of Peroxisome proliferator activated receptor gamma (PPAR) expressed in CV-1 cells

[2] = biological target: T2, Peroxisome proliferator-activated receptor alpha (Mus musculus, UniProt P23204); test: In vitro transcriptional activation of peroxisome proliferator activated alpha-receptor (PPAR) expressed in CV-1 cells; Inactive; assay type: functional, cell-based
T2 sequence (P23204 whole entry): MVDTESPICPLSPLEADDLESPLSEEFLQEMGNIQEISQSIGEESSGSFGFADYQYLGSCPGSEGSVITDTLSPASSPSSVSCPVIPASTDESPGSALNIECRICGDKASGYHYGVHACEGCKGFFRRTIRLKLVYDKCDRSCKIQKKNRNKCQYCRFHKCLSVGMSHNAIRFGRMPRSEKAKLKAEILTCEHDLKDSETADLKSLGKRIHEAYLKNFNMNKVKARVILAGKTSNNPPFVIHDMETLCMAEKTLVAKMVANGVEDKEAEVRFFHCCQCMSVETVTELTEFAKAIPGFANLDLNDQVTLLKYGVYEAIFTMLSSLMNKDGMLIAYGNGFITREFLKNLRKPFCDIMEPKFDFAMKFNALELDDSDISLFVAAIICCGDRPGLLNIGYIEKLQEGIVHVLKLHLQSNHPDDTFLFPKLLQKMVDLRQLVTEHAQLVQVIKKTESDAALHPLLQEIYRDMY

[3] = biological target: T3, Peroxisome proliferator-activated receptor delta (Mus musculus, UniProt P35396); conditions: cv-1
T3 sequence (P35396 whole entry): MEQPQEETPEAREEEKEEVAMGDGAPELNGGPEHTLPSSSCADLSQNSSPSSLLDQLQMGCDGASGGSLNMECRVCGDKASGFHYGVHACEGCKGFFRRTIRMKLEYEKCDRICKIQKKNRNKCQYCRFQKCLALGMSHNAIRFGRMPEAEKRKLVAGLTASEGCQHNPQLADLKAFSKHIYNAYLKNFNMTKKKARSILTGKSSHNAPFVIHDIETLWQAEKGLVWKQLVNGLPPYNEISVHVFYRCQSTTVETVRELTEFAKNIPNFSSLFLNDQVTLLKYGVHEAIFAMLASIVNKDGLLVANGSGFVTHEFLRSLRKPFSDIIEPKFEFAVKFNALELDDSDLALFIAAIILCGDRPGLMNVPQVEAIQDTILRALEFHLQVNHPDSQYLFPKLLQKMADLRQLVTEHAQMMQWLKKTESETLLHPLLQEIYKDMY

[4] = biological target: T2, Peroxisome proliferator-activated receptor alpha; test: In vitro transcriptional activation of peroxisome proliferator activated alpha-receptor (PPAR) expressed in CV-1 cells; assay type: functional, cell-based

EC50 [1]	EC50 [2]	EC50 [3]	EC50 [4]	SMILES	MED (Mus musculus)
1 µM	Not Active	Not Active		CN(CCCOc1ccc(CC2SC(=O)NC2=O)cc1)c1nc2ccccc2o1 (configuration not stated)	300 µM/kg
	Not Active	Not Active		CCc1ccc(CCOc2ccc(CC3SC(=O)NC3=O)cc2)nc1 (configuration not stated) [PIOGLITAZONE]	300 µM/kg
	Not Active	Not Active		CN(CCOc1ccc(CC2SC(=O)NC2=O)cc1)c1nc2ccccc2o1 (configuration not stated) [BRL-48482]	3 µM/kg
110 µM		Not Active	80 µM	O=C(O)CCC(=O)c1ccc(Oc2ccc(Cl)cc2)cc1	
10 µM	Not Active	Not Active		CN(CCOc1ccc(C2SC(=O)NC2=O)cc1)c1nc2ccccc2o1 (configuration not stated)	>1000 µM/kg
600 µM		Not Active	51 µM	CC(C)(Oc1ccc(Cl)cc1)C(=O)O [CLOFIBRIC ACID]	
3 µM	Not Active	Not Active		CC1(COc2ccc(CC3SC(=O)NC3=O)cc2)CCCCC1 (configuration not stated) [CIGLITAZONE]	3000 µM/kg
13 µM	Not Active	Not Active		O=C1NC(=O)C(Cc2ccc3c(c2)CC[C@H](Cc2ccccc2)O3)S1 (some centres not stated) [ENGLITAZONE]	
	Not Active			CN(CCOc1ccc(CC2SC(=O)NC2=O)cc1)c1ccccn1 (configuration not stated) [ROSIGLITAZONE]	3 µM/kg

SMILES	EC50 [1]	EC50 [2]	EC50 [3]	EC50 [4]	MED (Mus musculus)
CN(CCOc1ccc(/C=C2\SC(=O)NC2=O)cc1)c1ccccn1	0.19 µM	Not Active	Not Active		300 µM/kg
CN(CCOc1ccc(/C=C2\SC(=O)NC2=O)cc1)c1nc2ccccc2o1	0.14 µM	Not Active	Not Active		300 µM/kg
